According to PubChem BioAssay (NCI):
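Each compound was tested at five concentrations against cells in 96-well plates for 48 hours. TGI is the concentration that stops growth completely.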

Legend:
Assay in all cases: NCI anticancer screen, dose series, 48 h
SNB-19 CNS = test system: SNB-19 CNS
UACC-62 melanoma = test system: UACC-62 melanoma
DMS 273 small cell lung = test system: DMS 273 small cell lung
COLO 205 colon = test system: COLO 205 colon
EKVX NSCLC = test system: EKVX NSCLC
SR leukemia = test system: SR leukemia
UACC-257 melanoma = test system: UACC-257 melanoma
RXF 393 renal = test system: RXF 393 renal
HCC-2998 colon = test system: HCC-2998 colon
SK-OV-3 ovarian = test system: SK-OV-3 ovarian
NCI-H23 lung = test system: NCI-H23 lung
RXF-631 renal = test system: RXF-631 renal
M14 melanoma = test system: M14 melanoma
IGROV1 ovarian = test system: IGROV1 ovarian
SF-295 CNS = test system: SF-295 CNS
SF-539 CNS = test system: SF-539 CNS
U251 CNS = test system: U251 CNS
HOP-62 NSCLC = test system: HOP-62 NSCLC
LOX IMVI melanoma = test system: LOX IMVI melanoma
OVCAR-4 ovarian = test system: OVCAR-4 ovarian
LXFL 529 NSCLC = test system: LXFL 529 NSCLC
HOP-92 NSCLC = test system: HOP-92 NSCLC
SN12C renal = test system: SN12C renal
SK-MEL-28 melanoma = test system: SK-MEL-28 melanoma
CAKI-1 renal = test system: CAKI-1 renal
A549 NSCLC = test system: A549 NSCLC
SK-MEL-2 melanoma = test system: SK-MEL-2 melanoma
A498 renal = test system: A498 renal
DLD-1 colon = test system: DLD-1 colon
SK-MEL-5 melanoma = test system: SK-MEL-5 melanoma
SW-620 colon = test system: SW-620 colon
MALME-3M melanoma = test system: MALME-3M melanoma
NCI-H522 lung = test system: NCI-H522 lung
KM20L2 colon = test system: KM20L2 colon
CCRF-CEM leukemia = test system: CCRF-CEM leukemia
OVCAR-5 ovarian = test system: OVCAR-5 ovarian
SF-268 CNS = test system: SF-268 CNS
HL-60(TB) leukemia = test system: HL-60(TB) leukemia
RPMI-8226 leukemia = test system: RPMI-8226 leukemia
OVCAR-3 ovarian = test system: OVCAR-3 ovarian
HOP-18 NSCLC = test system: HOP-18 NSCLC
HT29 colon = test system: HT29 colon
HCT-15 colon = test system: HCT-15 colon
NCI-H460 lung = test system: NCI-H460 lung
HCT-116 colon = test system: HCT-116 colon
MOLT-4 leukemia = test system: MOLT-4 leukemia
K-562 leukemia = test system: K-562 leukemia
TK-10 renal = test system: TK-10 renal
XF 498 CNS = test system: XF 498 CNS
786-0 renal = test system: 786-0 renal
DMS 114 small cell lung = test system: DMS 114 small cell lung
SNB-78 CNS = test system: SNB-78 CNS
KM12 colon = test system: KM12 colon
SNB-75 CNS = test system: SNB-75 CNS
ACHN renal = test system: ACHN renal
UO-31 renal = test system: UO-31 renal
NCI-H226 lung = test system: NCI-H226 lung
OVCAR-8 ovarian = test system: OVCAR-8 ovarian
M19-MEL melanoma = test system: M19-MEL melanoma

C[C@]12CCC[C@H](OC=O)C1(O)C[C@H](C(=O)O)CC2 (some centres undefined)
TGI (SNB-19 CNS): > 100 µM | TGI (UACC-62 melanoma): 32.5 µM | TGI (DMS 273 small cell lung): > 100 µM | TGI (COLO 205 colon): > 100 µM | TGI (EKVX NSCLC): 40.2 µM | TGI (SR leukemia): > 100 µM | TGI (UACC-257 melanoma): > 100 µM | TGI (RXF 393 renal): > 100 µM | TGI (HCC-2998 colon): > 100 µM | TGI (SK-OV-3 ovarian): > 100 µM | TGI (NCI-H23 lung): > 100 µM | TGI (RXF-631 renal): > 100 µM | TGI (M14 melanoma): > 100 µM | TGI (IGROV1 ovarian): > 100 µM | TGI (SF-295 CNS): > 100 µM | TGI (SF-539 CNS): > 100 µM | TGI (U251 CNS): > 100 µM | TGI (HOP-62 NSCLC): > 100 µM | TGI (LOX IMVI melanoma): > 100 µM | TGI (OVCAR-4 ovarian): > 100 µM | TGI (LXFL 529 NSCLC): > 100 µM | TGI (HOP-92 NSCLC): > 100 µM | TGI (SN12C renal): > 100 µM | TGI (SK-MEL-28 melanoma): > 100 µM | TGI (CAKI-1 renal): > 100 µM | TGI (A549 NSCLC): > 100 µM | TGI (SK-MEL-2 melanoma): > 100 µM | TGI (A498 renal): > 100 µM | TGI (DLD-1 colon): > 100 µM | TGI (SK-MEL-5 melanoma): > 100 µM | TGI (SW-620 colon): > 100 µM | TGI (MALME-3M melanoma): > 100 µM | TGI (NCI-H522 lung): > 100 µM | TGI (KM20L2 colon): 35.2 µM | TGI (CCRF-CEM leukemia): > 100 µM | TGI (OVCAR-5 ovarian): > 100 µM | TGI (SF-268 CNS): > 100 µM | TGI (HL-60(TB) leukemia): > 100 µM | TGI (RPMI-8226 leukemia): > 100 µM | TGI (OVCAR-3 ovarian): > 100 µM | TGI (HOP-18 NSCLC): > 100 µM | TGI (HT29 colon): > 100 µM | TGI (HCT-15 colon): > 100 µM | TGI (NCI-H460 lung): > 100 µM | TGI (HCT-116 colon): > 100 µM | TGI (MOLT-4 leukemia): > 100 µM | TGI (K-562 leukemia): > 100 µM | TGI (TK-10 renal): > 100 µM | TGI (XF 498 CNS): > 100 µM | TGI (786-0 renal): > 100 µM | TGI (DMS 114 small cell lung): > 100 µM | TGI (SNB-78 CNS): > 100 µM | TGI (KM12 colon): > 100 µM | TGI (SNB-75 CNS): > 100 µM | TGI (ACHN renal): > 100 µM | TGI (UO-31 renal): > 100 µM | TGI (NCI-H226 lung): > 100 µM | TGI (OVCAR-8 ovarian): > 100 µM | TGI (M19-MEL melanoma): > 100 µM
